ChEMBL document CHEMBL1201862, “PubChem BioAssay data set” (2004)
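All cell lines were grown in 96-well plates and treated with compound for 48 hours. Here, GI50 denotes the concentration required for 50% inhibition of growth.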 Active and inactive are the calls of the source. No stated cut-off is given here; in the data, active = GI50 up to about 1.1 µM and inactive = higher.

Legend:
Assay in all cases: NCI tumour cell line growth inhibition, 48 h
HCT-116 = test system: HCT-116
ACHN = test system: ACHN
SK-MEL-28 = test system: SK-MEL-28
LXFL 529 = test system: LXFL 529
SK-MEL-5 = test system: SK-MEL-5
SK-MEL-2 = test system: SK-MEL-2
HCT-15 = test system: HCT-15
SNB-75 = test system: SNB-75
HOP-92 = test system: HOP-92
SW-620 = test system: SW-620
SN12C = test system: SN12C
OVCAR-8 = test system: OVCAR-8
DLD-1 = test system: DLD-1
RXF 393 = test system: RXF 393
DMS-114 = test system: DMS-114
OVCAR-3 = test system: OVCAR-3
TK-10 = test system: TK-10
SNB-78 = test system: SNB-78
OVCAR-5 = test system: OVCAR-5
HOP-18 = test system: HOP-18
A549 = test system: A549
HT-29 = test system: HT-29
M14 = test system: M14
SNB-19 = test system: SNB-19
SK-OV-3 = test system: SK-OV-3
K562 = test system: K562
RPMI-8226 = test system: RPMI-8226
SR = test system: SR
SF-295 = test system: SF-295
IGROV-1 = test system: IGROV-1
NCI-H226 = test system: NCI-H226
SF-539 = test system: SF-539
NCI-H522 = test system: NCI-H522
NCI-H460 = test system: NCI-H460
SF-268 = test system: SF-268
U-251 = test system: U-251
LOX IMVI = test system: LOX IMVI
786-0 = test system: 786-0
UACC-62 = test system: UACC-62
UACC-257 = test system: UACC-257
HL-60 = test system: HL-60
MOLT-4 = test system: MOLT-4
HOP-62 = test system: HOP-62
EKVX = test system: EKVX
Malme-3M = test system: Malme-3M
KM-20L2 = test system: KM-20L2
CCRF-CEM = test system: CCRF-CEM
KM12 = test system: KM12
COLO 205 = test system: COLO 205
DMS-273 = test system: DMS-273
NCI-H23 = test system: NCI-H23
UO-31 = test system: UO-31
HCC 2998 = test system: HCC 2998
M19-MEL = test system: M19-MEL

For `N#CC(C#N)=c1ccc(=C2N3CCCC3CN2C23CC4CC(CC(C4)C2)C3)cc1` (centres undefined), which GI50 (HCT-116) is on record?
The GI50 was > 100 µM (inactive).

What about the GI50 (ACHN) of the same molecule?
The GI50 was > 100 µM (inactive).

What about the GI50 (SK-MEL-28) of the same molecule?
The GI50 was 69.3 µM (inactive).

What about the GI50 (LXFL 529) of the same molecule?
The GI50 was > 100 µM (inactive).

What about the GI50 (SK-MEL-5) of the same molecule?
The GI50 was > 100 µM (inactive).

And the GI50 (SK-MEL-2)?
Its GI50 is > 100 µM (inactive).

And the GI50 (HCT-15)?
Its GI50 is greater than 100 µM.

And the GI50 (SNB-75)?
Its GI50 is 26.4 µM (inactive).

And the GI50 (HOP-92)?
Its GI50 is > 100 µM (inactive).

What about the GI50 (SW-620) of the same molecule?
The GI50 was > 100 µM (inactive).

And the GI50 (SN12C)?
Its GI50 is > 100 µM (inactive).

What about the GI50 (OVCAR-8) of the same molecule?
The GI50 was > 100 µM (inactive).

And the GI50 (DLD-1)?
The GI50 was > 100 µM (inactive).

What about the GI50 (RXF 393) of the same molecule?
The GI50 was > 100 µM (inactive).

And the GI50 (DMS-114)?
Its GI50 is > 100 µM (inactive).

And the GI50 (OVCAR-3)?
The GI50 was > 100 µM (inactive).

What about the GI50 (TK-10) of the same molecule?
Its GI50 is 76.4 µM (inactive).

And the GI50 (SNB-78)?
Its GI50 is > 100 µM (inactive).

And the GI50 (OVCAR-5)?
The GI50 was > 100 µM (inactive).

What about the GI50 (HOP-18) of the same molecule?
Its GI50 is > 100 µM (inactive).

And the GI50 (A549)?
The GI50 was > 100 µM (inactive).

And the GI50 (HT-29)?
The GI50 was > 100 µM (inactive).

And the GI50 (M14)?
The GI50 was > 100 µM (inactive).

What about the GI50 (SNB-19) of the same molecule?
The GI50 was 84.1 µM (inactive).

What about the GI50 (SK-OV-3) of the same molecule?
The GI50 was > 100 µM (inactive).

What about the GI50 (K562) of the same molecule?
Its GI50 is > 100 µM (inactive).

And the GI50 (RPMI-8226)?
Its GI50 is > 100 µM (inactive).

And the GI50 (SR)?
The GI50 was > 100 µM (inactive).

What about the GI50 (SF-295) of the same molecule?
The GI50 was > 100 µM (inactive).

And the GI50 (IGROV-1)?
The GI50 was > 100 µM (inactive).

What about the GI50 (NCI-H226) of the same molecule?
The GI50 was > 100 µM (inactive).

And the GI50 (SF-539)?
The GI50 was > 100 µM (inactive).

And the GI50 (NCI-H522)?
Its GI50 is > 100 µM (inactive).

And the GI50 (NCI-H460)?
The GI50 was > 100 µM (inactive).

What about the GI50 (SF-268) of the same molecule?
The GI50 was 55.8 µM (inactive).

And the GI50 (U-251)?
Its GI50 is > 100 µM (inactive).

And the GI50 (LOX IMVI)?
The GI50 was > 100 µM (inactive).

What about the GI50 (786-0) of the same molecule?
Its GI50 is > 100 µM (inactive).

And the GI50 (UACC-62)?
The GI50 was 90.6 µM (inactive).

What about the GI50 (UACC-257) of the same molecule?
Its GI50 is > 100 µM (inactive).

What about the GI50 (HL-60) of the same molecule?
The GI50 was > 100 µM (inactive).

And the GI50 (MOLT-4)?
The GI50 was > 100 µM (inactive).

What about the GI50 (HOP-62) of the same molecule?
Its GI50 is 24.4 µM (inactive).

What about the GI50 (EKVX) of the same molecule?
Its GI50 is > 100 µM (inactive).

What about the GI50 (Malme-3M) of the same molecule?
Its GI50 is > 100 µM (inactive).

And the GI50 (KM-20L2)?
Its GI50 is > 100 µM (inactive).

What about the GI50 (CCRF-CEM) of the same molecule?
Its GI50 is > 100 µM (inactive).

And the GI50 (KM12)?
The GI50 was > 100 µM (inactive).

What about the GI50 (COLO 205) of the same molecule?
Its GI50 is > 100 µM (inactive).

What about the GI50 (DMS-273) of the same molecule?
The GI50 was > 100 µM (inactive).

And the GI50 (NCI-H23)?
Its GI50 is > 100 µM (inactive).

And the GI50 (UO-31)?
The GI50 was > 100 µM (inactive).

What about the GI50 (HCC 2998) of the same molecule?
Its GI50 is > 100 µM (inactive).

And the GI50 (M19-MEL)?
The GI50 was > 100 µM (inactive).
